From US9012443B2 (Amgen Inc., priority 2011, dated 2015)

Legend:
Nav 1.7 [1] = molecular target: T1, Nav 1.7 (Homo sapiens (Human), UniProt Q15858); assay: Nav 1.7 IWQ in vitro assay (IonWorks Quattro population patch-clamp); type: cell-based; conditions: 293 cells stably transfected with Nav 1.7; second part of table; read-out: Nav1.7 IWQ IC50 IP
Method in brief: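 Percent block, measured in duplicate, came from peak minus end-of-pulse current on the 26th −20 mV step, and IC50 was fitted against concentration. Stably transfected 293 cells were recorded in population patch-clamp mode before and after a single test concentration, which was added over 3–8 min while cells were unclamped.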

Nav 1.7 [2] = molecular target: T1, Nav 1.7; assay: Nav 1.7 in vitro PX assay (PatchXpress whole cell voltage clamp); type: cell-based; conditions: 293 cells, human Nav1.7, partially inactivated state; read-out: Nav1.7 PX IC50 IP
Method in brief: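 Partially inactivated channel state (holding potential for 20–50% inactivation) probed in human Nav1.7-transfected 293 cells by automated patch clamp, test pulse −10 mV for 20 msec.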

T1 sequence (Q15858 whole entry): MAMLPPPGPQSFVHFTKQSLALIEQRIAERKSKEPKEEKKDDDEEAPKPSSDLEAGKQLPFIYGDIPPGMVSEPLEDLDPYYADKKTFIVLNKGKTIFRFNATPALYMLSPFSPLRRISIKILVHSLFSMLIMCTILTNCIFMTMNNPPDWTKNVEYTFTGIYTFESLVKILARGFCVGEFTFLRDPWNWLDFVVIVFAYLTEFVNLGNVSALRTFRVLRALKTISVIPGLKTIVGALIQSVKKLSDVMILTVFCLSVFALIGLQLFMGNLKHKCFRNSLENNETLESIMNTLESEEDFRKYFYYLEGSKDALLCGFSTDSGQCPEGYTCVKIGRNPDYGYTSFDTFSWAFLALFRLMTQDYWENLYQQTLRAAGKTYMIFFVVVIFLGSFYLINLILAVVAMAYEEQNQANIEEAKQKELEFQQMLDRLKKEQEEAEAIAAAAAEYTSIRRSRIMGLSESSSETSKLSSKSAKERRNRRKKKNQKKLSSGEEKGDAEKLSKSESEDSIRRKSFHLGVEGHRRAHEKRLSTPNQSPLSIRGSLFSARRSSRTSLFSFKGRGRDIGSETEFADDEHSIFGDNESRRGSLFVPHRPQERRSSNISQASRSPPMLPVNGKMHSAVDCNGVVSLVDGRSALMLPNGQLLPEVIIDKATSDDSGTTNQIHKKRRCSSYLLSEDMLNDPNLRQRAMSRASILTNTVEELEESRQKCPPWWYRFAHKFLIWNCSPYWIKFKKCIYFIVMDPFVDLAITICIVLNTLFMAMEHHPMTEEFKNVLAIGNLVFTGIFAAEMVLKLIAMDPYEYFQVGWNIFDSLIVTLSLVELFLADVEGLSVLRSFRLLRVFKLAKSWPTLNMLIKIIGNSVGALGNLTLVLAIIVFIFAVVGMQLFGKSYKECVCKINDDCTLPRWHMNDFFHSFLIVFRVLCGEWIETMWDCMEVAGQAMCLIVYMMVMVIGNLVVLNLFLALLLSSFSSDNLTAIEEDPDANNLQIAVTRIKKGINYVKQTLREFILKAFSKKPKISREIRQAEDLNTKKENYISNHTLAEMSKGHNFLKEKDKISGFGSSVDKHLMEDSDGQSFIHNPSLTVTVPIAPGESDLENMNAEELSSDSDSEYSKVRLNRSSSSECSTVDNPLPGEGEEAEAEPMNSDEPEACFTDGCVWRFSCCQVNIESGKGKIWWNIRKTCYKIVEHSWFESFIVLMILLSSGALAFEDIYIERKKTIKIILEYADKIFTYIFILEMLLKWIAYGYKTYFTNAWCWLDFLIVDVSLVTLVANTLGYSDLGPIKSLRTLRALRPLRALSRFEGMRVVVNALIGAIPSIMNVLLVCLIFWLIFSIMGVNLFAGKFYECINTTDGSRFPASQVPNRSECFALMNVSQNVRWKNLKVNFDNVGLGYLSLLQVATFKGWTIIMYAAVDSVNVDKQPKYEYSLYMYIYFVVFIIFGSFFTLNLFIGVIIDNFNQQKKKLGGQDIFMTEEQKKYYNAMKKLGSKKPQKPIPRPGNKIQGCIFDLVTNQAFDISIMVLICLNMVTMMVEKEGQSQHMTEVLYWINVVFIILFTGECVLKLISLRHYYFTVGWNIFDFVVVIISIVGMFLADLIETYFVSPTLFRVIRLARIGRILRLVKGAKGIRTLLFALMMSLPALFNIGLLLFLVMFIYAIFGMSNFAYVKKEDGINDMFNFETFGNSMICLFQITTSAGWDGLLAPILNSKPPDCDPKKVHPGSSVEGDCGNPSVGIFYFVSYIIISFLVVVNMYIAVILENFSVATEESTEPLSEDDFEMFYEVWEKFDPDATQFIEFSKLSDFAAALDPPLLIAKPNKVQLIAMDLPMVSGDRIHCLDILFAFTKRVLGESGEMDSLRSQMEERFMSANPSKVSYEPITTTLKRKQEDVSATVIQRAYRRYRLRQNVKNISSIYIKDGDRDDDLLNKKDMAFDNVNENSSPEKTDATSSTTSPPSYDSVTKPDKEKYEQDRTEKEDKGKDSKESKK

Row | SMILES | IC50 (Nav 1.7 [1]) | IC50 (Nav 1.7 [2])
1 | COc1cc(C(F)(F)F)ccc1-c1nccc2cc(S(=O)(=O)Nc3cccnn3)ccc12 [Example 185, 1-(2-METHOXY-4-(TRIFLUOROMETHYL)PHENYL)-N-(PYRIDAZIN-3-YL)ISOQUINOLINE-6-SULFONAMIDE] | 0.27 µM | 2.7 µM
2 | O=S(=O)(Nc1ncns1)c1ccc2c(NCc3ccccc3)cccc2c1 [Example 99, 5-(benzylamino)-N-(1,2,4-thiadiazol-5-yl)naphthalene-2-sulfonamide] | 1.18 µM | 4.45 µM
3 | Cn1cncc1-c1cc(C(F)(F)F)ccc1-c1cccc2cc(S(=O)(=O)Nc3ncc(F)s3)ccc12 [Example 110] | 0.04 µM | 0.14 µM
4 | COc1cc(C(F)(F)F)ccc1-c1nccc2cc(S(=O)(=O)Nc3ncc(C#N)s3)ccc12 [Example 197, N-(5-CYANOTHIAZOL-2-YL)-1-(2-METHOXY-4-(TRIFLUOROMETHYL)PHENYL)ISOQUINOLINE-6-SULFONAMIDE] | 2.93 µM | 3.06 µM
5 | O=S(=O)(Nc1nccs1)c1ccc2c(N3CCC(c4ccccc4)C3)nccc2c1 (stereo not shown) [Example 243, 1-(3-PHENYLPYRROLIDIN-1-YL)-N-(THIAZOL-2-YL)ISOQUINOLINE-6-SULFONAMIDE] | 0.78 µM | 10.7 µM
6 | COc1ccc(-c2nccc3cc(S(=O)(=O)Nc4ccncn4)ccc23)c(OC)c1 [Example 172, 1-(2,4-DIMETHOXYPHENYL)-N-(PYRIMIDIN-4-YL)ISOQUINOLINE-6-SULFONAMIDE] | 0.27 µM | 16.6 µM
7 | COc1ccccc1-c1nccc2cc(S(=O)(=O)Nc3ncns3)ccc12 [Example 194, 1-(2-METHOXYPHENYL)-N-(1,2,4-THIADIAZOL-5-YL)ISOQUINOLINE-6-SULFONAMIDE] | 0.01 µM | 0.255 µM
8 | COc1cc(C(F)(F)F)ccc1-c1ncc(C#N)c2cc(S(=O)(=O)Nc3nccs3)ccc12 [Example 240, 4-CYANO-1-(2-METHOXY-4-(TRIFLUOROMETHYL)PHENYL)-N-(THIAZOL-2-YL)ISOQUINOLINE-6-SULFONAMIDE] | 0.19 µM | 0.39 µM

Continued by falling IC50 (Nav 1.7 [1]), values first:

Row | IC50 (Nav 1.7 [1]) | IC50 (Nav 1.7 [2]) | SMILES
9 | 5.43 µM | > 30 µM | Cc1cc2cnn(C)c2cc1-c1nccc2cc(S(=O)(=O)Nc3ccncn3)ccc12 [Example 165]
10 | 1.83 µM | 34.1 µM | O=S(=O)(Nc1ccncn1)c1ccc2c(OCc3nccn3Cc3ccc(Cl)cc3)nccc2c1 [Example 133, 1-((1-(4-CHLOROBENZYL)-1H-IMIDAZOL-2-YL)METHOXY)-N-(PYRIMIDIN-4-YL)ISOQUINOLINE-6-SULFONAMIDE]
11 | 0.64 µM | 29.8 µM | O=S(=O)(Nc1ccncn1)c1ccc2c(-c3ccccc3OCC(F)(F)F)nccc2c1 [Example 174, N-(PYRIMIDIN-4-YL)-1-(2-(2,2,2-TRIFLUOROETHOXY)PHENYL)ISOQUINOLINE-6-SULFONAMIDE]
12 | 0.17 µM | 0.21 µM | O=S(=O)(Nc1ncc(F)s1)c1ccc2c(-c3ccc(C(F)(F)F)cc3C3=CCNCC3)cccc2c1 [Example 108]
13 | 0.08 µM | 0.118 µM | O=S(=O)(Nc1ncc(F)s1)c1ccc2c(-c3ccc(C(F)(F)F)cc3C3CCNCC3)cccc2c1 [Example 113]
14 | 0.04 µM | 0.692 µM | COc1cc(Cl)ccc1-c1ncc(F)c2cc(S(=O)(=O)Nc3ccncn3)ccc12 [Example 217, 1-(4-CHLORO-2-METHOXYPHENYL)-4-FLUORO-N-(PYRIMIDIN-4-YL)ISOQUINOLINE-6-SULFONAMIDE]
15 | 0.01 µM | 0.28 µM | COc1cc(C(F)(F)F)ccc1-c1ncnc2cc(S(=O)(=O)Nc3ncc(F)s3)ccc12 [Example 263, N-(5-FLUOROTHIAZOL-2-YL)-4-(2-METHOXY-4-(TRIFLUOROMETHYL)PHENYL)QUINAZOLINE-7-SULFONAMIDE]
16 | 0.01 µM | 0.36 µM | COc1cc(F)ccc1-c1ncc(F)c2cc(S(=O)(=O)Nc3nccs3)ccc12 [Example 213, 4-FLUORO-1-(4-FLUORO-2-METHOXYPHENYL)-N-(THIAZOL-2-YL)ISOQUINOLINE-6-SULFONAMIDE]
17 | 0.01 µM | 0.0572 µM | COc1ccccc1-c1cccc2cc(S(=O)(=O)Nc3ncns3)ccc12 [Example 94]
